± gives the standard deviation of the averaged measurements.
Experiments:
SOTRASTAURIN/AEB071 = compound: CN1CCN(c2nc(C3=C(c4c[nH]c5ccccc45)C(=O)NC3=O)c3ccccc3n2)CC1 [SOTRASTAURIN/AEB071]; test: surviving fraction relative to DMSO-only wells; higher = less growth inhibition; settings: exposure time: 5 days
In short: (§1)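 Tumour cell lines were grown to log phase and seeded at 250–500 cells per well in 384-well plates. They were exposed continuously to inhibitors at 0.5, 1, 5, 10, 50, 100, 500 and 1000 nM for five days, beginning 24 hours after seeding. Surviving fraction is CellTiter-Glo luminescence normalised to the median of DMSO-only wells.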

ABIRATERONE = compound: C[C@]12CC[C@H](O)CC1=CC[C@@H]1[C@@H]2CC[C@]2(C)C(c3cccnc3)=CC[C@@H]12 [ABIRATERONE]; test: as above; settings: exposure time: 5 days
In short: as §1

Test System	surviving fraction (SOTRASTAURIN/AEB071; 0.5 nM)	surviving fraction (SOTRASTAURIN/AEB071; 1 nM)	surviving fraction (SOTRASTAURIN/AEB071; 5 nM)	surviving fraction (SOTRASTAURIN/AEB071; 10 nM)	surviving fraction (SOTRASTAURIN/AEB071; 50 nM)	surviving fraction (SOTRASTAURIN/AEB071; 100 nM)	surviving fraction (SOTRASTAURIN/AEB071; 500 nM)	surviving fraction (SOTRASTAURIN/AEB071; 1000 nM)	surviving fraction (ABIRATERONE; 0.5 nM)	surviving fraction (ABIRATERONE; 1 nM)	surviving fraction (ABIRATERONE; 5 nM)	surviving fraction (ABIRATERONE; 10 nM)	surviving fraction (ABIRATERONE; 50 nM)	surviving fraction (ABIRATERONE; 100 nM)	surviving fraction (ABIRATERONE; 500 nM)	surviving fraction (ABIRATERONE; 1000 nM)
S68 BREAST	1.01 ± 0.3	1.06 ± 0.074	1.04 ± 0.15	1.53 ± 0.22	0.832 ± 0.079	0.909 ± 0.13	0.891 ± 0.12	1.08 ± 0.26	0.939 ± 0.22	0.785 ± 0.063	1.21 ± 0.21	0.925 ± 0.098	1.17 ± 0.021	1.17 ± 0.092	0.942 ± 0.15	0.878 ± 0.17
CHLA90 AUTONOMIC GANGLIA	0.975 ± 0.024	0.962 ± 0.046	1.02 ± 0.074	0.943 ± 0.081	1.05 ± 0.12	1 ± 0.083	1.06 ± 0.097	0.978 ± 0.17	1.01 ± 0.064	1.07 ± 0.043	1.06 ± 0.023	1.05 ± 0.044	1.05 ± 0.052	0.993 ± 0.096	1.08 ± 0.017	1.09 ± 0.05
CASKI CERVIX	0.955 ± 0.051	0.962 ± 0.08	0.974 ± 0.035	0.906 ± 0.026	0.989 ± 0.12	0.898 ± 0.047	0.975 ± 0.021	0.863 ± 0.036	0.924 ± 0.015	0.884 ± 0.044	1.04 ± 0.1	1.03 ± 0.018	1.08 ± 0.027	1.1 ± 0.014	1.09 ± 0.032	1.11 ± 0.05
HT1080 SOFT TISSUE	1.07 ± 0.028	1.08 ± 0.024	1.053 ± 0.0085	1.05 ± 0.021	1.03 ± 0.025	1.04 ± 0.016	1.07 ± 0.019	1.16 ± 0.063	1.01 ± 0.013	1.05 ± 0.015	1.03 ± 0.012	1.02 ± 0.017	1.01 ± 0.023	1.02 ± 0.02	1.04 ± 0.027	0.997 ± 0.019
KPD BONE	0.967 ± 0.054	0.974 ± 0.034	1.08 ± 0.062	1.04 ± 0.032	1.01 ± 0.031	1.08 ± 0.019	1.04 ± 0.043	1.07 ± 0.059	0.966 ± 0.05	0.993 ± 0.054	1.02 ± 0.012	1.07 ± 0.043	1.07 ± 0.054	1.09 ± 0.041	1.01 ± 0.035	0.976 ± 0.054
HCC1954 BREAST	1.1 ± 0.09	1.1 ± 0.08	1.2 ± 0.11	1.19 ± 0.27	0.63 ± 0.2	0.682 ± 0.12	0.502 ± 0.072	0.674 ± 0.16	0.838 ± 0.082	1.01 ± 0.13	1.05 ± 0.088	1.13 ± 0.12	1.09 ± 0.23	1.12 ± 0.041	1.08 ± 0.086	1.02 ± 0.014
MDAMB468 BREAST	0.911 ± 0.041	0.9443 ± 0.0091	1.02 ± 0.061	0.932 ± 0.019	0.964 ± 0.09	0.964 ± 0.077	0.947 ± 0.076	0.868 ± 0.053	0.965 ± 0.013	1.04 ± 0.034	0.997 ± 0.079	1.07 ± 0.052	1.18 ± 0.13	1.12 ± 0.053	1.05 ± 0.11	0.961 ± 0.09
SNU475 LIVER	0.996 ± 0.06	1.04 ± 0.055	1.01 ± 0.042	1.03 ± 0.034	0.9037 ± 0.0085	0.873 ± 0.029	0.932 ± 0.04	0.908 ± 0.046	1.03 ± 0.024	1.07 ± 0.035	1.05 ± 0.035	1.06 ± 0.045	1.02 ± 0.03	1.02 ± 0.071	1 ± 0.085	1.04 ± 0.016
VCAP PROSTATE	1.08 ± 0.18	1.01 ± 0.11	1.08 ± 0.06	1.03 ± 0.096	0.883 ± 0.1	1.1 ± 0.052	0.941 ± 0.085	0.931 ± 0.13	1.13 ± 0.024	1.07 ± 0.083	1.19 ± 0.049	1.12 ± 0.073	1.22 ± 0.1	1.18 ± 0.18	1.02 ± 0.1	0.967 ± 0.11
NOS1 BONE	1.05 ± 0.087	1 ± 0.084	1.14 ± 0.12	1.08 ± 0.071	0.974 ± 0.095	1 ± 0.037	0.899 ± 0.035	1 ± 0.037	1.27 ± 0.16	1.05 ± 0.044	1.23 ± 0.089	1.22 ± 0.099	1.19 ± 0.15	1.24 ± 0.17	1.2 ± 0.095	0.999 ± 0.04

— the supplement of paper PMC6045584
